Measurements from patent publication US12091426B2, “Bifunctional degraders of hematopoietic progenitor kinase and therapeutic uses thereof” (Nurix Therapeutics, Inc., priority 2021, dated 2024).

Target: T1, HPK1 (Homo sapiens, UniProt Q92918)
T1 construct: A HiBiT tag was introduced by CRISPR on the N terminus of HPK1 in Jurkat cells; host or cells: Jurkat cells (ATCC TIB-152), monoclonal line with CRISPR knock-in of HiBiT at the endogenous HPK1 locus
Test: HPK1 Cellular HiBit Degradation Assay
Format: cell-based
Conditions: HiBiT HPK1 Jurkat cells, 24 hrs; for DC50: concentration at which 50% of HPK1 was remaining, read-out: DC50 Category; for Dmax: Jurkat, maximum degradation vs DMSO vehicle control, read-out: Dmax Category
Method in brief: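 Jurkat cells with CRISPR knock-in N-terminal HiBiT-HPK1 were treated with CTMs (11-point, 3.16-fold, 10 uM to 0.1 nM final) for 24 hrs at 37° C. HiBiT lytic luminescence, with parental Jurkat as background and DMSO as 100%, gave % HPK1 remaining; four-parameter fit yielded DC50 and Dmax (100 minus lowest % remaining).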

T1 sequence (Q92918 whole entry): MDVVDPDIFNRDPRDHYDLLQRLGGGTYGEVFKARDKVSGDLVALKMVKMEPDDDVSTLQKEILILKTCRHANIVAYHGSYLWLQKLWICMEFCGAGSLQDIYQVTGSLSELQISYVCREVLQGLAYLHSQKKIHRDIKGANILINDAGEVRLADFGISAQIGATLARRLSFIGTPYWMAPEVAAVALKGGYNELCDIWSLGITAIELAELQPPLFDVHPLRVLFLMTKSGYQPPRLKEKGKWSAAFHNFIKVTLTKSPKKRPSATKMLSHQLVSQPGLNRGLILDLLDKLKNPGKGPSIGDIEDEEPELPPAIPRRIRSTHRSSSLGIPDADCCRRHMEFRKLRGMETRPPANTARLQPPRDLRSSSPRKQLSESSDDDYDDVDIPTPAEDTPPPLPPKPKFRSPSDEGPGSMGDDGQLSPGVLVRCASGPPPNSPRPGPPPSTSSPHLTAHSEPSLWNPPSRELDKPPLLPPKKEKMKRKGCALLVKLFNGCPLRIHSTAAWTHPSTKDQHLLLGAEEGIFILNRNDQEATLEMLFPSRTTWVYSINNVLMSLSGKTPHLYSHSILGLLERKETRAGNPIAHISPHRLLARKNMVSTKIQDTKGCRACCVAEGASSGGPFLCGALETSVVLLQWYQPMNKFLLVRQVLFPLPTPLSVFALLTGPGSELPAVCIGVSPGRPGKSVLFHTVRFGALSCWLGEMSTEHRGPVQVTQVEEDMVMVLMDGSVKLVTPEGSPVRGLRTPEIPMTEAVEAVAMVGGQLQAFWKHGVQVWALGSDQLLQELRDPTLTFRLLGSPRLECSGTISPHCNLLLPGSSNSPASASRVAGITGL

SMILES | DC50 [nM] | Dmax [%]
CC(C)n1cnc2cc(-c3ccc4c(c3)N([C@H]3C[C@@H](N5CCCCC5)C3)C(=O)C43CCN(C(=O)C45CC(CN(C(=O)C6CCN(c7ccc(C8CCC(=O)NC8=O)cn7)CC6)C4)C5)CC3)nc(NC3CC3)c21 (mixture of isomers) [Example 271, (3RS)-3-(6-{4-[1-({6-[4-(cyclopropylamino)-3-(propan-2-yl)-3H-imidazo[4,5-c]pyridin-6-yl]-2-oxo-1-[(1S,3S)-3-(piperidin-1-yl)cyclobutyl]-1,2-dihydrospiro[indole-3,4′-piperidin]-1′-yl}carbonyl)-3-azabicyclo[3.1.1]heptane-3-carbonyl]piperidin-1-yl}pyridin-3-yl)piperidine-2,6-dione] | < 100 | 70 to 85
CC(C)n1cnc2cc(-c3ccc4c(c3)N([C@H]3C[C@@H](N5CCCCC5)C3)C(=O)C43CCN(C(=O)C4(O)CCN(C(=O)C5CCN(c6ccc(C7CCC(=O)NC7=O)cc6)CC5)CC4)CC3)nc(NC3CC3)c21 (mixture of isomers) [Example 274, (3RS)-3-(4-{4-[4-({6-[4-(cyclopropylamino)-3-(propan-2-yl)-3H-imidazo[4,5-c]pyridin-6-yl]-2-oxo-1-[(1S,3S)-3-(piperidin-1-yl)cyclobutyl]-1,2-dihydrospiro[indole-3,4′-piperidin]-1′-yl}carbonyl)-4-hydroxypiperidine-1-carbonyl]piperidin-1-yl}phenyl)piperidine-2,6-dione] | < 100 | 70 to 85
CC(C)n1cnc2cc(-c3ccc4c(c3)N([C@H]3C[C@@H](N5CCCCC5)C3)C(=O)C43CCN(C(=O)C4(C(F)(F)F)CCN(C(=O)C5CCN(c6ccc(C7CCC(=O)NC7=O)cn6)CC5)CC4)CC3)nc(NC3CC3)c21 (mixture of isomers) [Example 275, (3RS)-3-(6-{4-[4-({6-[4-(cyclopropylamino)-3-(propan-2-yl)-3H-imidazo[4,5-c]pyridin-6-yl]-2-oxo-1-[(1S,3S)-3-(piperidin-1-yl)cyclobutyl]-1,2-dihydrospiro[indole-3,4′-piperidin]-1′-yl}carbonyl)-4-(trifluoromethyl)piperidine-1-carbonyl]piperidin-1-yl}pyridin-3-yl)piperidine-2,6-dione] | 100 to 500 | > 85
CC(C)n1cnc2cc(-c3ccc4c(c3)N([C@H]3C[C@@H](N5CCCCC5)C3)C(=O)C43CCN(C(=O)C45CN(C(=O)C6CCN(c7ccc(C8CCC(=O)NC8=O)cn7)CC6)CC(F)(C4)C5)CC3)nc(NC3CC3)c21 (mixture of isomers) [Example 279, (3RS)-3-(6-{4-[1-({6-[4-(cyclopropylamino)-3-(propan-2-yl)-3H-imidazo[4,5-c]pyridin-6-yl]-2-oxo-1-[(1S,3S)-3-(piperidin-1-yl)cyclobutyl]-1,2-dihydrospiro[indole-3,4′-piperidin]-1′-yl}carbonyl)-5-fluoro-3-azabicyclo[3.1.1]heptane-3-carbonyl]piperidin-1-yl}pyridin-3-yl)piperidine-2,6-dione] | < 100 | 70 to 85
CC(C)n1cnc2cc(-c3ccc4c(c3)N([C@H]3C[C@@H](N5CCCCC5)C3)C(=O)C43CCN(C(=O)C4C5CC4CN(C(=O)C4CCN(c6ccc(C7CCC(=O)NC7=O)cn6)CC4)C5)CC3)nc(NC3CC3)c21 (mixture of isomers) [Example 282, (3RS)-3-(6-{4-[6-({6-[4-(cyclopropylamino)-3-(propan-2-yl)-3H-imidazo[4,5-c]pyridin-6-yl]-2-oxo-1-[(1S,3S)-3-(piperidin-1-yl)cyclobutyl]-1,2-dihydrospiro[indole-3,4′-piperidin]-1′-yl}carbonyl)-3-azabicyclo[3.1.1]heptane-3-carbonyl]piperidin-1-yl}pyridin-3-yl)piperidine-2,6-dione] | < 100 | 70 to 85
CC(C)n1cnc2cc(-c3ccc4c(c3)N([C@H]3C[C@@H](N5CCCCC5)C3)C(=O)C43CCN(C(=O)C4C5CCC4CN(C(=O)C4CCN(c6ccc(C7CCC(=O)NC7=O)cn6)CC4)C5)CC3)nc(NC3CC3)c21 (mixture of isomers) [Example 284, (3RS)-3-(6-{4-[8-({6-[4-(cyclopropylamino)-3-(propan-2-yl)-3H-imidazo[4,5-c]pyridin-6-yl]-2-oxo-1-[(1S,3S)-3-(piperidin-1-yl)cyclobutyl]-1,2-dihydrospiro[indole-3,4′-piperidin]-1′-yl}carbonyl)-3-azabicyclo[3.2.1]Octane-3-carbonyl]piperidin-1-yl}pyridin-3-yl)piperidine-2,6-dione] | < 100 | 70 to 85

Second part, the compound after the results:

DC50 [nM] | Dmax [%] | SMILES
< 100 | 70 to 85 | CC(C)n1cnc2cc(-c3ccc4c(c3)N([C@H]3C[C@@H](N5CCCCC5)C3)C(=O)C43CCN(C(=O)C4CCCN(C(=O)C5CCN(c6ccc(C7CCC(=O)NC7=O)cn6)CC5)C4)CC3)nc(NC3CC3)c21 (mixture of isomers) [Example 272, (3RS)-3-(6-{4-[3-({6-[4-(cyclopropylamino)-3-(propan-2-yl)-3H-imidazo[4,5-c]pyridin-6-yl]-2-oxo-1-[(1S,3S)-3-(piperidin-1-yl)cyclobutyl]-1,2-dihydrospiro[indole-3,4′-piperidin]-1′-yl}carbonyl)piperidine-1-carbonyl]piperidin-1-yl}pyridin-3-yl)piperidine-2,6-dione]
< 100 | 70 to 85 | CC(C)n1cnc2cc(-c3ccc4c(c3)N([C@H]3C[C@@H](N5CCCCC5)C3)C(=O)C43CCN(C(=O)C4CCN(C(=O)C5CCN(c6ccc(C7CCC(=O)NC7=O)cn6)CC5)CC4(F)F)CC3)nc(NC3CC3)c21 (mixture of isomers) [Example 273, (3RS)-3-(6-{4-[4-({6-[4-(cyclopropylamino)-3-(propan-2-yl)-3H-imidazo[4,5-c]pyridin-6-yl]-2-oxo-1-[(1S,3S)-3-(piperidin-1-yl)cyclobutyl]-1,2-dihydrospiro[indole-3,4′-piperidin]-1′-yl}carbonyl)-3,3-Difluoropiperidine-1-carbonyl]piperidin-1-yl}pyridin-3-yl)piperidine-2,6-dione]
< 100 | > 85 | CC(C)n1cnc2cc(-c3ccc4c(c3)N([C@H]3C[C@@H](N5CCCCC5)C3)C(=O)C43CCN(C(=O)C4(C(F)F)CCN(C(=O)C5CCN(c6ccc(C7CCC(=O)NC7=O)cn6)CC5)CC4)CC3)nc(NC3CC3)c21 (mixture of isomers) [Example 276, (3RS)-3-(6-{4-[4-({6-[4-(cyclopropylamino)-3-(propan-2-yl)-3H-imidazo[4,5-c]pyridin-6-yl]-2-oxo-1-[(1S,3S)-3-(piperidin-1-yl)cyclobutyl]-1,2-dihydrospiro[indole-3,4′-piperidin]-1′-yl}carbonyl)-4-(difluoromethyl)piperidine-1-carbonyl]piperidin-1-yl}pyridin-3-yl)piperidine-2,6-dione]
< 100 | 70 to 85 | CC(C)n1cnc2cc(-c3ccc4c(c3)N([C@H]3C[C@@H](N5CCCCC5)C3)C(=O)C43CCN(C(=O)C4(F)CCN(C(=O)C5CCN(c6ccc(C7CCC(=O)NC7=O)cn6)CC5)CC4)CC3)nc(NC3CC3)c21 (mixture of isomers) [Example 277, (3RS)-3-(6-{4-[4-({6-[4-(cyclopropylamino)-3-(propan-2-yl)-3H-imidazo[4,5-c]pyridin-6-yl]-2-oxo-1-[(1S,3S)-3-(piperidin-1-yl)cyclobutyl]-1,2-dihydrospiro[indole-3,4′-piperidin]-1′-yl}carbonyl)-4-fluoropiperidine-1-carbonyl]piperidin-1-yl}pyridin-3-yl)piperidine-2,6-dione]
< 100 | > 85 | CC(C)n1cnc2cc(-c3ccc4c(c3)N([C@H]3C[C@@H](N5CCCCC5)C3)C(=O)C43CCN(C(=O)C4(CF)CCN(C(=O)C5CCN(c6ccc(C7CCC(=O)NC7=O)cn6)CC5)CC4)CC3)nc(NC3CC3)c21 (mixture of isomers) [Example 278]
< 100 | 70 to 85 | CC(C)n1cnc2cc(-c3ccc4c(c3)N([C@H]3C[C@@H](N5CCCCC5)C3)C(=O)C43CCN(C(=O)C4(F)CCCN(C(=O)C5CCN(c6ccc(C7CCC(=O)NC7=O)cn6)CC5)C4)CC3)nc(NC3CC3)c21 (mixture of isomers) [Example 280, (3RS)-3-(6-{4-[3-({6-[4-(cyclopropylamino)-3-(propan-2-yl)-3H-imidazo[4,5-c]pyridin-6-yl]-2-oxo-1-[(1S,3S)-3-(piperidin-1-yl)cyclobutyl]-1,2-dihydrospiro[indole-3,4′-piperidin]-1′-yl}carbonyl)-3-fluoropiperidine-1-carbonyl]piperidin-1-yl}pyridin-3-yl)piperidine-2,6-dione]
< 100 | 50 to 70 | CC(C)n1cnc2cc(-c3ccc4c(c3)N([C@H]3C[C@@H](N5CCCCC5)C3)C(=O)C43CCN(C(=O)C45CN(C(=O)C6CCN(c7ccc(C8CCC(=O)NC8=O)cn7)CC6)CC4C5(F)F)CC3)nc(NC3CC3)c21 (mixture of isomers) [Example 281, (3RS)-3-(6-{4-[1-({6-[4-(cyclopropylamino)-3-(propan-2-yl)-3H-imidazo[4,5-c]pyridin-6-yl]-2-oxo-1-[(1S,3S)-3-(piperidin-1-yl)cyclobutyl]-1,2-dihydrospiro[indole-3,4′-piperidin]-1′-yl}carbonyl)-6,6-difluoro-3-azabicyclo[3.1.0]hexane-3-carbonyl]piperidin-1-yl}pyridin-3-yl)piperidine-2,6-dione]
100 to 500 | 50 to 70 | CC(C)n1cnc2cc(-c3ccc4c(c3)N([C@H]3C[C@@H](N5CCCCC5)C3)C(=O)C43CCN(C(=O)C4CC5CCC4N(C(=O)C4CCN(c6ccc(C7CCC(=O)NC7=O)cn6)CC4)C5)CC3)nc(NC3CC3)c21 (mixture of isomers) [Example 283, (3RS)-3-(6-{4-[6-({6-[4-(cyclopropylamino)-3-(propan-2-yl)-3H-imidazo[4,5-c]pyridin-6-yl]-2-oxo-1-[(1S,3S)-3-(piperidin-1-yl)cyclobutyl]-1,2-dihydrospiro[indole-3,4′-piperidin]-1′-yl}carbonyl)-2-azabicyclo[2.2.2]Octane-2-carbonyl]piperidin-1-yl}pyridin-3-yl)piperidine-2,6-dione]
